Each structure is given as a SMILES string.

For one assay, the target named is T1, SHP2 (Homo sapiens, UniProt Q06124).
T1 sequence (Q06124 1-593): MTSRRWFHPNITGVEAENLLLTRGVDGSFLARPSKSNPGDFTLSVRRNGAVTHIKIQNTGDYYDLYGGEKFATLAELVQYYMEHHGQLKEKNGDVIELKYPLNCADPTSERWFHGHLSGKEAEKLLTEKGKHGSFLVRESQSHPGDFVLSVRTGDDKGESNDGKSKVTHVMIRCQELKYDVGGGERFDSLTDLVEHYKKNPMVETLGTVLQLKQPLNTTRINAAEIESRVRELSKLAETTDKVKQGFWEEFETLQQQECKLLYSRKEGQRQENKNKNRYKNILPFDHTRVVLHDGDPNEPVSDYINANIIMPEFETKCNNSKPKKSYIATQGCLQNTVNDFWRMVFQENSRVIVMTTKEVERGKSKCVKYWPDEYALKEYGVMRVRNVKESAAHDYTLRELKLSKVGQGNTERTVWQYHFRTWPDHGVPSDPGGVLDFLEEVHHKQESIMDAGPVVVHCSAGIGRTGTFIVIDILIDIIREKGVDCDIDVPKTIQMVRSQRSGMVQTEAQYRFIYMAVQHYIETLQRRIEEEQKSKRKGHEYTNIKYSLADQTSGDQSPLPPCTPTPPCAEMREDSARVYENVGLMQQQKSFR
Description: SHP2 biochemical assay (DiFMUP conversion). The note with it: 10 pM SHP2, 0.25 μM pIRS1 peptide, 50 μM DiFMUP. The protocol:
(1) SHP2 Biochemical Assay SHP2 Activity was Monitored by Measuring the Conversion of the Surrogate Substrate 6,8-Difluoromethylumbelliferyl Phosphate (DiEMUP) to the Fluorescent Product, 6,8-Difluoromethylumbelliferone (DiFMU).
SHP2 was pre-incubated with test compounds and the activating peptide pIRS1 (H2N-LN(pY) IDLDLV-(PEG) 8-LST(pY)ASINFQK-amide) for 30 min, prior to addition of the 6,8-difluoromethylumbelliferyl phosphate (DiEMUP), (Thermo Fisher D6567). Final assay concentrations were 10 pM SHP2, 0.25 μM pIRS1 peptide, 50 μM DiFMUP, 25 mM Bis-Tris propane, pH 7.0, 150 mM NaCl, 0.05% (v/v) Tween-20, 0.5 mM TCEP and 5% (v/v) DMSO. Rates of reaction were then measured over 30 min by monitoring fluorescence on a BMG Pherastar reader at excitation 360 nm/emission 450 nm. IC50 values were calculated in singlicate from the normalized dose-response plots using four parameter logistic curve fit. The Experiment for each compound was carried out in one time or multiple times, and the IC50 values were shown as a single value (for a compound measured in a single experiment) or an average value (for a compound measured in multiple experiments).

Assay [1] has as its system human pancreatic cancer cell line MIA PaCa-2 (KRAS mutation). Description: Antitumor effect on MIA PaCa-2 tumor subcutaneously implanted to CB17 SCID mouse. Format: in vivo. The note with it: for T/C: once a day, Day 18. The protocol: MIA PaCa-2 cell line carries KRAS mutation.
A human pancreatic cancer line, MIA PaCa-2 (available from American Type Culture Collection), suspended in a mixture of PBS and Matrigel was subcutaneously implanted to male CB17 SCID mice at 7-10 weeks of age (Charles River UK) at 5×10^6 cells/100 μl/mouse. Tumors were measured with a pair of digital calipers, and tumor volumes (TV) were calculated by applying the formula for ellipsoid. Mice with TV of 146 to 360 mm^3 were assigned to study groups such that average TV was equal among groups.
Oral administration of Compound 1 or its vehicle, and Compound 9 or its vehicle was started on Day 1. Compound 1 was dissolved in an acidified solution of 0.5% (w/v) hydroxypropyl methylcellulose (Sigma) and administered via oral gavage at 6 or 12 mg/kg/day. Compound 9 was suspended in 20% (v/v) PEG200 (Sigma) and 0.5% (w/v) methylcellulose (Sigma) and administered via oral gavage at 50 mg/kg/day. All treatments were given once a day for 21 consecutive days, except for the combination group receiving 12 mg/kg of Compound 1 and 50 mg/kg of Compound 9, in which the animals were treated for 5 days per week for 3 weeks.
Antitumor effects were evaluated by comparing the median relative tumor volumes (RTV) between control- and treated groups. RTV was calculated by dividing TV on any test day by TV on Day 1, expressed as a percentage. T/C (%), as a measure of anti-tumor activity, was calculated by dividing median RTV values of each compound-administered group by median RTV of the control group receiving both vehicles.

In assay [2] the test system is 394 cell lines that do not depend on KRAS. The assay is described as follows: In vitro cell line screening, 2D monolayers (CellTiter-Glo), KRAS-independent panel. Format: cell-based, human. The note with it: Non-KRAS panel, sensitive = maximum inhibition greater than 50% relative to DMSO, max 3 μM Compound 1, 1 μM Compound 9, 120-hour incubation. As to the method: Cells from human cancer cells lines (from commercial sources such as ATCC or ECCAC) were grown as 2D monolayers by seeding onto flat-bottom 96-well tissue culture plates (Corning). Cells were allowed to recover for 16-24 hours prior to compound treatment. Compounds or dimethyl sulfoxide (DMSO) were added at various combinations of compound concentrations in a final DMSO concentration of up to 0.5% (v/v). Following a total of 120-hour incubation, CellTiter-Glo reagent(registered trademark) (Promega) was added. Plates were incubated for 10 minutes with gentle shaking at room temperature to lyse the cells, then incubated for further 10 minutes at room temperature to stabilize luminescence signal. After mixing, the mixture was transferred to a fresh plate, and luminescence was determined on EnVision plate reader (Perkin Elmer).
For both 3D and 2D assays, the combination was tested as matrix of various concentrations of Compound 1 and Compound 9. The maximum concentrations of Compound 1 and Compound 9 used were 3 μM and 1 μM, respectively. Signals were normalized to that of the average of the DMSO control wells. […] For each cell line, the maximum % inhibition values were obtained for Compound 1 alone, Compound 9 alone and the combination of both compounds. The degree of drug interaction (i.e. synergy, additivity or antagonism) was quantified for each cell line by the Bliss independence model using the Synergyfinder R package (Ref: He L. et al. (2018) Methods for High-throughput Drug Combination Screening and Synergy Scoring. In: von Stechow L. (eds) Cancer Systems Biology. Methods in Molecular Biology, vol 1711. Humana Press, New York, N.Y.). For each cell line, a single score metric, the sum of synergy and antagonism across screened drug concentrations (SUM_SYN_ANT) (Ref: Di Veroli G. Y. et al (2016) Bioinformatics 32(18):2866-2868), was calculated. Synergy was defined as a score of 21 or above.

Broadly, the IC50 is the concentration at which inhibition is half-maximal. Read a low IC50 as greater potency. What is called T/C is the result in the treated group divided by that in the control group, in per cent. In the case of `Cn1nc2ccc(-c3c[nH]c4nc(N5[C@H]6CC[C@@H]5[C@H](N)C6)n(C)c(=O)c34)c(Cl)c2c1Cl` [Compound 1, 2-((1R,2R,4S)-2-amino-7-azabicyclo[2.2.1]heptan-7-yl)-5-(3,4-dichloro-2-methyl-2H-indazol-5-yl)-3-methyl-3,7-dihydro-4H-pyrrolo[2,3-d]pyrimidin-4-one], at SHP2, the IC50 was 2 nM. In addition, in assay [1] (Compound 1 alone 6 mg/kg/day), the tumor response entry is “transient stasis”. Also, the T/C in assay [1] (Compound 1 alone 6 mg/kg/day oral) stood at 58%. Moreover, in assay [1] (Compound 1 alone 12 mg/kg/day), the “partial regression (tumor shrinkage of 50% or above), mice” value is listed as 2 out of 8 and the tumor response result is on record as “tumor stasis”. The T/C in assay [1] (Compound 1 alone 12 mg/kg/day oral) is recorded as 33%. For the same molecule, in assay [2], the “Number of cell lines sensitive” value was determined as 137 and the “Number of cell lines sensitive (% of total)” value is recorded as “(34.8) %”.

(Values after patent US20230146795A1, “ENHANCEMENT OF ANTI-TUMOR ACTIVITY OF SHP2 INHIBITOR PYRIMIDINONE IN COMBINATION WITH NOVEL CANCER MEDICINES IN CANCERS” (TAIHO PHARMACEUTICAL CO., LTD., priority 2020, published 2023).)
